Data set [1] concerns leukocyte membrane proteins. As to the kind of experiment: Cell surface density or distribution of leukocyte membrane proteins, overall. It counts as in vivo, mouse (Balb/c female). As to conditions: unstimulated mice, 20 μg.
The test system of a further data set is IgM. As to the kind of experiment: Serum IgM in anti-IgD stimulated mice (two site sandwich ELISA, Assay E). As to conditions: 20 μg IP 3x daily days 3 and 4. In kind it is in vivo, mouse (Balb/c female). The procedure: Sera from mice treated with compounds in accordance with the method of the invention are analyzed for levels of IgG1, IgG2a, IgG3, and IgM.
Measurement of mouse IgM by a two site sandwich ELISA is performed in substantial accordance with the teachings of Assay B except for the following changes. About 250 ng of rabbit anti-mouse IgM (Zymed Laboratories) is used to coat a NuncImmulon 96 well plate. The IgM standard is purchased from Southern Biotech. The standard curve is linear between 8-500 ng/ml. Serum containing IgM is diluted 1/4,000 to 1/60,000. About a 1/10,000 dilution of goat anti mouse IgM conjugated to horse radish peroxidase is used as a combined primary antibody and developing reagent. 100 μl is added to each well and the plate is incubated at about 4° C. overnight. The colorimetric substrate is prepared and used as described in Assay A.
Two groups of 4 Balb/c female mice per group are injected with both 100 μg FF1-4D5 antibody and 100 μg H∂Al antibody. On day 3 and 4 the mice are injected with PBS (Group A) or 20 μg (±) methyl 11α,16-dihydroxy-16-ethyl-9-oxoprosta-5Z,13E-dien-1-oate (Group B) at 7 a.m., 1 p.m. and 7 p.m. in substantial accordance with the teaching of Example 13. On day -1, 7, 8, 9 and 11, 50-100 μl of serum is recovered and analyzed for IgE by Assay A and for IgM by Assay E. The results are shown in Table 6.
Three groups of 5 Balb/c female mice per group are injected with both 100 μg FF1-4D5 antibody and 100 μg H∂A1 antibody on day 0. Group A is a control with no further treatment. On day 3 and 4, the mice are injected with 20 μg (±) methyl 11α,16-dihydroxy-4,4,16-trimethyl-9-oxoprosta-13E-en-1-oate (Group B) or 20 μg (±) methyl 11α,16-dihydroxy-16-methyl-9-oxoprosta-3,5Z,13E-trien-1-oate (Group C) as in Example 13. On day -1 and 8, […] of serum is recovered and analyzed for IgE, IgG1, IgG2a, IgG3 and IgM by Assays A, B, C, D and E, respectively.

For data set [2], the system named is IgE. The experiment in a line: Serum IgE response induced by FF1-4D5 + H∂A1 anti-IgD antibodies (ELISA, Assay A / Assay F). It counts as in vivo, mouse (Balb/c female). On the procedure: Mouse hybridoma cells expressing either FF1-4D5 antibody or H∂A1 antibody are thawed, established in culture, and incubated in mice as ascite tumors. FF1-4D5 antibody is a mouse IgG2a monoclonal antibody of the b allotype that binds the Fd fragment of the ∂ chain of the a allotype IgD which activates β cells through antigen internalization and processing, promoting cognate interactions with antigen-specific T cells (D. K. Goroff et al., J. Immunol. 136: 2382 (1986)). H∂A1 antibody is a mouse IgG2b of the b allotype that binds the Fc fragment of the ∂ chain of the a allotype IgD which activates β cells through crosslinking IgD (I. M. Zitron and B. L. Clevinger, J. Exp. Med. 152: 1135 (1980)). Each antibody is purified from their respective ascites tumor fluid. […] Serum from the injected mice is recovered and the mean concentration of IgE determined.
Serum levels of IgE are determined and IgE levels are shown to be inhibited in a dose dependent manner.
(§1) ELISA (enzyme linked immunosorbant assay) measurements of IgE are as follows. About 5 μg of B1E3 antibody in 100 μl borate buffered saline (pH8.5) is added to wells of a NuncImmulon II 96 well plate (DiRuscio & Assoc., St. Louis, Mo.) at 37° C. for 90 minutes. The non-bound antibody is removed by flicking the plate. Unreacted sites on the plastic plate are blocked by adding about 200 μl of a 2% solution of newborn bovine serum (NBS) in PBS at 37° C. for 60 minutes. The standard IgE (or an unknown murine serum sample) is diluted to between about 4 ng/ml-256 ng/ml in Hanks-HS (20 mM Hepes, 2% NBS in Hanks Balanced Salt Solution, Gibco, Grand Island, N.Y.) or to 1/200 to 1/1000 in Hanks-HS respectively. 100 μl of standard (or unknown dilutions) are added in triplicate to the wells of the plate and allowed to absorb to B1E3 antibody at about 37° C. for 2-4 hours. The solution is removed by flicking the plate and each well is washed with about 0.5 ml 0.05% Tween 20-PBS 5 times. About 100 μl of biotinylated R1E4, called the primary antibody, diluted to 200 ng/ml is added to all wells and incubated at about 4° C. overnight. The solution is removed by flicking the plate and washed 5 times as described above. The developing reagent (Avidin and biotin-horse radish peroxidase) is incubated in 2% NBS in PBS at ambient temperature for 30 minutes, according to manufacturer's specifications (Vector Laboratories, Burlingame, Calif.). About 100 μl of developing reagent is added to each well and incubated at ambient temperature for 30 minutes. Colorimetric substrate for the developing reagent (ABTS peroxidase substrate system, KPL, Gaithersburg, Md.) is prepared by mixing equal volumes of solutions A and B and incubating at ambient temperature for 60 minutes. The developing reagent solution is removed by flicking the plate and washed 5 times as described above. About 100 μl of the mixture of substrates is added to each well and incubated at ambient temperature for 60 minutes. The optical density of each well is determined on a BioTek ELISA reader (Biotek Instruments, Inc., Burlington, Vermont) and the absorbance data transferred electronically to a DEC VAX mainframe computer. A standard curve is fitted to the IgE standard optical densities using straight line, linear regression statistical fits. IgE in the unknown serum samples is determined by comparing the optical density of the unknown to the standard curve and multiplying that number by the dilution of serum used in the assay.
Stimulation of a transient serum IgE response in mouse with two monoclonal antibodies directed against IgD is carried out as follows.
Mouse hybridoma cells expressing either FF1-4D5 antibody or H∂Al antibody are thawed, established in culture, and incubated in CB6 F1 female mice as an ascites tumor and each immunoglobulin is purified from the ascites fluid as described above. […]

A short description of data set [3]: Diarrheal effects in rats. As to conditions: rat, in vivo, po.
Procedure: (§2) Briefly, adult Charles River male rats weighing 210-230 g were individually housed and fasted with water available ad libitum for 24 hours prior to the test. The animals (N=6-12) received logarithmically graded prostaglandin doses orally. Immediately after administration, the animals were returned to their cages, and diarrhea, if any, was assessed on an all or none basis for 8 hours after drug treatment. The ED50 and relative potency values were calculated by the logistic method of Berkson.
The test system of data set [4] is IgE. As to the kind of experiment: ED50 for inhibition of IgE calculated from the examples. As to conditions: for ED50 IgE Inhibition: dose to achieve 50% inhibition of IgE. In kind it is in vivo, mouse. On the procedure: From the data in the above examples, the effective dose of each prostaglandin to achieve 50% inhibition of IgE (ED50) was calculated.
The conditions of data set [5]: rat, in vivo.
Procedure: as §2
In data set [6] the test system is IgE. The experiment in a line: In vitro IgE inhibition. In kind it is cell-based.
The test system of data set [7] is IgE. The experiment in a line: Inhibition of de novo IgE synthesis after oral (intragastric) administration. In kind it is in vivo, mouse (Balb/c female). As to conditions: for IgE ± SD: 20 μg intragastric TID days 3 and 4. On the procedure: as §1
Three groups of 4 Balb/c female mice per group are injected with both 100 μg FF1-4D5 antibody and 100 μg H∂A1 antibody (Groups B, C, and D). Another group of 4 Balb/c female mice is injected with PBS alone, unstimulated control Group A. One of the stimulated group were not given any prostaglandin control Group B. On day 3 and 4, individual groups receive an intragastric feeding TID of 0.25 ml of 20 μg of (±) methyl 11α,16-dihydroxy-16-methyl-9-oxoprosta-5Z,13E-dien-1-oate (Group C) or 20 μg of prostaglandin E2 (Group D) dissolved in PBS.

The conditions of data set [8]: J. Pene et al., 1988; cited from earlier work.
Where [9] appears, read: day -1 baseline before treatment.
Setting [10] is: Table 9, 20 μg IP days 3 and 4, day 8 (control 3539).
Setting [11] is: Table 9, 20 μg IP days 3 and 4, day -1 baseline before treatment.

Entries after “also recorded” stand apart in the source; their conditions may differ.

`CCCCC(O)(CC)C/C=C/[C@H]1[C@H](O)CC(=O)[C@@H]1C/C=C\CCCC(=O)OC` (mixture of isomers) [(±) methyl 11α,16-dihydroxy-16-ethyl-9-oxoprosta-5Z,13E-dien-1-oate]: the “cell surface density and distribution” value in data set [1] is “identical cell surface density and distribution as the control group”. In the data set on IgM (Table 6), the “IgM synthesis” value was “IgM synthesis is not affected”. Besides, the “IgM ± SD” value in the data set on IgM (day 7 (PBS 1488)) came to 1858 ± 107 µg/mL; with IgM (day 8 (PBS 1690)), 2569 ± 803 µg/mL; in the data set with IgM (day 9 (PBS 1396)), 2104 ± 276 µg/mL; in the data set with IgM (day 11 (PBS 548)), 725 ± 199 µg/mL; in the data set on IgM (setting [9]), 272 ± 19 µg/mL. The “IgE production” value in the data set with IgE [2] (20 μg IP 3x daily days 3 and 4, Table 6) is on record as “IgE production is fully inhibited”. The “IgE ± SD” value with IgE [2] (Table 6, 20 μg IP 3x daily days 3 and 4, day 7 (PBS 4545)) was 847 ± 67 ng/mL; with IgE [2] (Table 6, 20 μg IP 3x daily days 3 and 4, day 8 (PBS 11398)), 1264 ± 173 ng/mL; in the data set with IgE [2] (Table 6, 20 μg IP 3x daily days 3 and 4, day 9 (PBS 7114)), 1064 ± 106 ng/mL; in the data set on IgE [2] (Table 6, 20 μg IP 3x daily days 3 and 4, day 11 (PBS 1064)), 808 ± 16 ng/mL; in the data set on IgE [2] (Table 6, 20 μg IP 3x daily days 3 and 4, day -1 baseline before treatment) it was less than 800 ng/mL.

Regarding `CCCCCCC(C)(O)C/C=C/[C@H]1[C@H](O)CC(=O)[C@@H]1CCCCCCC(=O)OC` (mixture of isomers) [(±) methyl-20-ethyl-11α,16-dihydroxy-16-methyl-9-oxoprost-13E-en-1-oate], in data set [3], the TD50 at 8 h stood at 2.7 mg/kg. The “de novo IgE synthesis” value in the data set on IgE [2] (20 μg days 3 and 4, Example 24) is reported as “inhibits de novo IgE synthesis”. The “IgE ± SD” value with IgE [2] (Table 13, 20 μg days 3 and 4, day 8 (control 3653)) is less than 800 ng/mL. For the same compound, the “IgE inhibition” value with IgE [2] (summary statement) is recorded as “excellent IgE inhibition”. For the same compound, in the data set on IgE [4], the “ED50 IgE Inhibition” value is given as 1.0 μg/mouse/TID. For the same compound, in data set [5], the “diarrhea side effects” value is listed as “essentially free of detrimental diarrhea side effects”. In [5] (po), the “diarrhea side-effect” value is “essentially free of the undesirable diarrhea side-effect”.

`CCCCC[C@H](O)/C=C/[C@H]1[C@H](O)CC(=O)[C@@H]1CCCCCCC(=O)O` [prostaglandin E1, reference compound]: the “inhibition of IgE in vitro” value in the data set with IgE [6] is reported as “exhibit inhibition of IgE in vitro”. Further, the “inhibition of de novo IgE synthesis in vivo” value in the data set on IgE [2] (20 μg days 3 and 4) is “lack of inhibition”. For the same compound, the “IgE ± SD” value in the data set with IgE [2] (setting [10]) was 2958 ± 717 ng/mL; with IgE [2] (setting [11]) it was less than 800 ng/mL. For the same compound, the “inhibition of IgE in vivo” value in the data set on IgE [2] (summary statement) was “only low inhibition in vivo”.

Regarding `CCCCC[C@H](O)/C=C/[C@H]1[C@H](O)CC(=O)[C@@H]1C/C=C\CCCC(=O)O` [prostaglandin E2], the “inhibition of IgE in vitro” value in the data set with IgE [6] is “exhibit inhibition of IgE in vitro”. Moreover, the “inhibition of de novo IgE synthesis after oral administration” value in the data set on IgE [7] (20 μg intragastric TID) is reported as “ineffective; also recorded: inhibits IgE synthesis slightly, if at all”. The “IgE ± SD” value was found to be 3724 ± 1361 ng/mL in the data set on IgE [7] (day 8 (stimulated control 5792, unstimulated 1015)); 1496 ± 219 ng/mL in the data set on IgE [7] (day 10 (stimulated control 1498)); 1094 ± 107 ng/mL in the data set on IgE [7] (setting [9]); 3340 ± 384 ng/mL in the data set with IgE [2] (setting [10]); 897 ± 194 ng/mL in the data set on IgE [2] (setting [11]). Moreover, the “inhibition of de novo IgE synthesis in vivo” value with IgE [2] (20 μg days 3 and 4) is on record as “lack of inhibition”. Further, in the data set on IgE [2] (summary statement), the “inhibition of IgE in vivo” value is listed as “only low inhibition in vivo”. In data set [8], the “immunosuppressive effects in vitro” value is listed as “Immunosuppressive effects of prostaglandins in vitro has been demonstrated”. In the data set on IgE [4], the “ED50 IgE Inhibition” value is reported as more than 45.0 μg/mouse/TID. For the same compound, the “dosage to achieve 50% inhibition of IgE” value in the data set with IgE [4] (text of Example 28) is reported as “greater than 45 μg/mouse”.

The values above are taken from US5157052A, “Method for inhibiting IgE production” (priority 1990, dated 1992).
